What was measured:
[1] = tested on: L1210 cells; details: 72 h incubation, MTT
Description: L1210 cells were seeded at a density of 1×10^4 cells per well into 96 well ‘v’ bottomed microtiter plates (Costar) in RPMI 1640 tissue culture media (Gibeo) supplemented with 10% Foetal Calf Scrum (FCS) (Gibeo). All incubations were carried out at 37° C. in an atmosphere of 5% CO2.
The cells were then left for 24 h. Prior to being incubated with the polymers the cells were centrifuged at 1000×g for 10 minutes at room temperature. This served to pellet the cells and allow the removal of the media.
Doxorubicin and dextrin doxorubicin were then dissolved in RPMI 1640 containing 10% FCS and filter sterilised through 0.2μ filters (Aerodisk). Following this, the pellet was resuspended in media containing the appropriate concentration of drug or drug conjugate.
The tetrazolium dye MTT was used to assess cell viability. The cells were incubated for 67 h prior to the addition of the MTT. After a further incubation period of 5 h, the cells in suspension were subjected to centrifugation, the media removed and 100 μl of optical grade DMSO (Sigma) was added. The plates were read at 550 mn using a Titerteck plate reader. Results (OD) were expressed as a % of the OD seen in cell cultures containing no polymer.

[2] = tested on: rat red blood cells; assay: Stability of rat red blood cells incubated in vitro (haemoglobin release, % lysis); assay type: cell-based; details: rat RBC 2% w/v suspension in PBS; relative to Triton X-100 = 100% lysis
Description: Dextrins of different molecular weight were incubated with isolated rat red blood cells (RBC) and haemoglobin release detected spectrophotometrically. Various dilutions of the test polymers (dextrins) and of the reference polymer polyethyleneimine were made up in PBS and mixed with an equal volume of fresh 2% w/v suspension of rat RBCs. This preparation was centrifuged at 1500×g for 10 min at room temperature. Then, 100 μl of the supernatant was removed and the levels of haemoglobin quantitated spectrophotometrically at […]. The results illustrated in FIG. 1 were expressed as % lysis relative to that of a Triton X-100 control (Sigma) which gave 100% RBC lysis.

Compound	toxicity to L1210 cells in vitro [1]	red cell lysis (haemoglobin release) [2]
COc1cccc2c1C(=O)c1c(O)c3c(c(O)c1C2=O)C[C@@](O)(C(=O)CO)C[C@@H]3O[C@H]1C[C@H](N)[C@H](O)[C@H](C)O1 [doxorubicin]	toxic	
Triton X-100		caused haemoglobin release

From patent US6338843B1, “Biologically active materials” (priority 1997, dated 2002)
